Reference: publication PMC12040169 (PLOS Biology, 2025)

Test: in vitro
Settings: human, hela cells, % viability

| Structure (SMILES) | viability at 28.5 h, 10 µM |
| --- | --- |
| CN1CCN(S(=O)(=O)c2ccc(-c3cnc(N)c(-c4ccc(O)cc4)n3)cc2F)CC1 [CBK131449] | 93.9% |
| CN(C)c1ccc(Nc2cc(Cl)nc3ccnn23)cc1 [CBK037203] | 98.3% |
| CCCOc1ncccc1O [CBK001459] | 89.7% |
| COc1ccc(-n2ncc3c2CC(C)(C)CC3N)cc1 (stereo not shown) [CBK306789] | 80% |
| Cc1cn2c3c(=O)n(CCN4CCOCC4)c(=O)n(C)c3nc2n1CC1CCCO1 (stereo not shown) [CBK269985] | 92.3% |
| O=C(NCCF)c1cn2cc(-c3cccs3)n(CC3CC3)c(=O)c2n1 [CBK307367] | 96.8% |
| CS(=O)(=O)c1ccc(-c2cnc3nc(N)ccc3c2)cc1 [CBK061916] | 92.9% |
| Cc1ccc(C(=O)COc2ccc(/C=C(\C#N)c3nc(-c4ccc5c(c4)OCO5)cs3)cc2)cc1 [CBK266778] | 101% |
| COc1ccc(C(C)C)cc1-c1cnc2nc(NS(C)(=O)=O)ccc2c1 [CBK085672] | 102% |
| COc1ccccc1NC(=O)N1C[C@@H]2C[C@H](C1)c1c(-c3cccs3)ccc(=O)n1C2 [CBK289191] | 107% |
| COc1ccc(C)cc1S(=O)(=O)N1CCN(C(c2ccccc2)c2ccccc2)CC1 [CBK263977] | 91.8% |
| CC(=O)Nc1ccc(-c2cc(-c3ccc(NC(C)=O)cc3)nc(-c3ccc([N+](=O)[O-])cc3)n2)cc1 [CBK261273] | 91.5% |
| CC(C)NC(=O)c1cc([C@H]2CC[C@H](CNC(=O)CN3CCCC3)CC2)nc2ccccc12 [CBK285861] | 85.7% |
| NC(=O)CN1CCC(Oc2cncc(OCc3cccnc3)n2)C1 (stereo not shown) [CBK084459] | 98% |
| O=C(NC1CCCCC1)c1ccc(-c2ccccc2)nc1NCCc1ccccn1 [CBK076553] | 101% |
| O=C(c1ccc(NC2CC2)nc1)N1CCC(CN2CCOCC2)CC1 [CBK305970] | 87.6% |
| CCc1nn(Cc2ccncc2)c(=O)c2cc3sc(C)cc3n12 [CBK284140] | 85.7% |
| C[C@@H](Nc1nccnc1-c1cccnc1)c1ccccc1 [CBK036759] | 109% |
| CC(=O)N1CCCc2cc(C(O)CN(C)Cc3ccccc3)ccc21 (stereo not shown) [CBK282149] | 88.5% |
| O=C(NCc1nnc(-c2cccs2)o1)C1(c2ccccc2)CC1 [CBK284635] | 96.2% |
| NS(=O)(=O)c1ccc(NC(=O)CSc2ccc([N+](=O)[O-])cn2)cc1 [CBK269002] | 95% |
| COC(=O)C1(Cc2ccccc2)CN(C(=O)OC(C)(C)C)CCC1=O (stereo not shown) [CBK003486] | 93.2% |

| Structure (SMILES) | viability at 28.5 h, 10 µM |
| --- | --- |
| CCc1c(C)nc2c(C)cccc2c1SCC(=O)O [CBK263554] | 87.6% |
| CC(Cn1cccn1)C(=O)N1CCc2sccc2C1C (stereo not shown) [CBK282074] | 103% |
| O=S(=O)(c1ccc(-c2ccc(S(=O)(=O)N3CCOCC3)cc2)cc1)N1CCOCC1 [CBK261366] | 103% |
| CCOc1ccc(CN(C)C(=O)Nc2cc(C)on2)cc1 [CBK306216] | 101% |
| CC(=O)NS(=O)(=O)c1ccc(NC(=O)c2cn(-c3ccccc3)nc2-c2cccs2)cc1 [CBK296125] | 86.3% |
| CC(=O)OCC(=O)N1CCC(N(C)Cc2ccc(-c3ccc(S(C)(=O)=O)cc3)nc2)CC1 [CBK165268] | 116% |
| CC(Sc1ccccc1)C(=O)NCCCN1CCOCC1 (stereo not shown) [CBK269214] | 106% |
| Cc1c(Cl)cccc1NC(=S)N1CCC(C(N)=O)(N2CCCCC2)CC1 [CBK264900] | 112% |
| CCC(=O)Nc1ccc(-c2nc3ccccc3[nH]2)cc1 [CBK287561] | 98.7% |
| O=S(=O)(Cc1ccc(-c2nc(-c3ccncc3)no2)o1)c1ccccc1 [CBK288579] | 96.6% |
| O=C(O)C1=CC(c2ccc(O)cc2)n2ncnc2N1 (stereo not shown) [CBK286545] | 88.7% |
| CC(NS(=O)(=O)c1ccccc1Cl)C(=O)N1CCCC1 (stereo not shown) [CBK305994] | 93.2% |
| Cc1cc2nc(NC(=N)N)[nH]c2cc1C [CBK003532] | 93.5% |
| O=C(CN1CCCC1)Nc1sc2c(c1C(=O)Nc1ccccc1)CCCC2 [CBK268800] | 103% |
| CC1(NC(=O)CC2C(=O)NCCN2Cc2cccc(F)c2)CCC1 (stereo not shown) [CBK281611] | 80.9% |
| Cc1ccn(CCNC(=O)c2cc(-c3cccs3)no2)n1 [CBK282679] | 78.9% |
| CCCNC(=O)Cc1sccc1NS(=O)(=O)c1ccc(C)cc1 [CBK038118] | 83% |
| Cc1ccccc1-c1noc(C(C)NC(=O)C2(Cn3ccnc3)CC2)n1 (stereo not shown) [CBK306684] | 99.7% |
| CN1CCCN(c2nccnc2-c2ccccc2CO)CC1 [CBK038014] | 106% |
| O=C(O)C1CCN(C2CC(=O)N(Cc3ccccc3)C2=O)CC1 (stereo not shown) [CBK287206] | 84.8% |
| CCN1CCN(Cc2nc3c(c(=O)n(C)c(=O)n3C)n2CCc2ccccc2)CC1 [CBK269547] | 110% |
| COc1ccc(-c2nc(C#N)c(NCCN3CCOCC3)o2)cc1 [CBK265769] | 108% |

| Structure (SMILES) | viability at 28.5 h, 10 µM |
| --- | --- |
| NC(=O)c1c(N)c(C(N)=S)n2c1CCC2 [CBK019270] | 98.1% |
| c1ccc(Oc2cccc(CN3CCN(c4ccccn4)CC3)c2)cc1 [CBK261523] | 102% |
| CCOC(=O)C(NC(=O)c1cc[nH]n1)c1cccc(C)c1C (stereo not shown) [CBK304131] | 85.5% |
| CC(C)C(NC(=O)c1ccc(CS(C)(=O)=O)cc1)c1ccc(C(C)(C)C)cc1 (stereo not shown) [CBK296705] | 102% |
| CCOCCn1c(CN2CCCCC2)nc2c1c(=O)n(C)c(=O)n2C [CBK306028] | 85.8% |
| COc1c(C)[nH]cc(CN(C)CCC(=O)Nc2cccc(F)c2)c1=O [CBK304201] | 90.5% |
| c1ccc2sc(CCSCCc3nc4ccccc4s3)nc2c1 [CBK261036] | 104% |
| O=C(CCNS(=O)(=O)c1ccc(Cl)cc1)N1CCN(Cc2ccccc2)CC1 [CBK269405] | 101% |
| CC(C)(C)c1cc(NC(=O)Cn2nc(C(=O)O)c3ccccc3c2=O)n(-c2ccccc2)n1 [CBK297557] | 85.1% |
| O=[N+]([O-])c1cnc(NS(=O)(=O)c2ccc(Oc3ccccc3)cc2)s1 [CBK067535] | 102% |
| O=C(Nc1ccc2[nH]ccc2c1)c1cnc(-c2ccc(F)cc2)c(-c2ccncc2)c1 [CBK037451] | 91.9% |
| Cc1ccc(S(=O)(=O)Nc2ccc(C(=O)Nc3ccc(S(=O)(=O)N4CCCCC4)cc3)cc2)cc1 [CBK269000] | 101% |
| Cc1cc(C(=O)N2CCN(C)CC2)ccc1-c1cnc(N)c(-c2ccc(O)cc2)n1 [CBK126749] | 94.8% |
| Cc1oc2ccc(O)cc2c1C(=O)N(C)CCN1CCCCC1 [CBK282158] | 83% |
| COc1cc(OC)cc(C(=O)Nc2ccc(C(=O)c3ccccc3)cc2)c1 [CBK098732] | 106% |
| CC(CCc1ccccc1)N(C)CCN(C)C (stereo not shown) [CBK261933] | 80.5% |
| COCCc1nc(C2CCC2)n(Cc2ccccc2C)n1 [CBK307238] | 91.8% |
| CC1CC1C(=O)NCC(=O)Nc1nc2ccc(OC(F)(F)F)cc2s1 (stereo not shown) [CBK297874] | 98.3% |
| NC(=O)[C@@H]1C[C@@H](O)[C@H](O)[C@H]2[C@@H]1N(c1ccc(Cl)cc1)C(=S)N2Cc1cccs1 [CBK288930] | 94.7% |
| CCc1c(C)sc(NC(=O)CSc2nnnn2C)c1C(=O)OC [CBK270312] | 90.7% |
| O=c1[nH]cnc2c1ncn2[C@H]1C[C@@H](O)[C@@H](CO)O1 [CBK201225] | 99.5% |
| Cc1ccc(C(=O)N[C@H]2CO[C@H]3[C@@H]2OC[C@@H]3n2cc(-c3ccccc3)nn2)cc1 [CBK289504] | 81.4% |

| Structure (SMILES) | viability at 28.5 h, 10 µM |
| --- | --- |
| NC(=O)C1CCN(Cc2nc(-c3cccc(C(F)(F)F)c3)no2)CC1 [CBK304276] | 97.4% |
| CC(C)(C)OC(=O)N1CCN(c2cc(Cl)nc(N)n2)CC1 [CBK003505] | 91.8% |
| Cc1ccc(-c2ncc(OCC3CCCN3C)nc2N)c(C)c1 (stereo not shown) [CBK145137] | 99.2% |
| Cn1nc(NC(=O)CC(C)(C)CC(=O)O)c2c(F)cccc21 [CBK057122] | 86.3% |
| CC(=O)c1ccc(NC(=O)Nc2nnc(CCN3CCCC3)s2)cc1 [CBK174990] | 92.6% |
| OC(CSc1ccccc1)CN1CCN(Cc2ccc3c(c2)OCO3)CC1 (stereo not shown) [CBK074761] | 87.2% |
| Cc1ccccc1OCC(O)Cn1c(=N)n(CCN2CCCCC2)c2ccccc21 (stereo not shown) [CBK266698C] | 98.1% |
| Cc1ccc(C(=O)n2c(=S)nc3ccccn32)cc1 [CBK025729] | 91.9% |
| NS(=O)(=O)c1ccc(CCNC(=O)C2c3ccccc3Oc3ccccc32)cc1 [CBK264389] | 104% |
| CCOc1ccc2cc(C3CC(c4ccccc4)=NN3C(=O)CCC(=O)O)c(Cl)nc2c1 (stereo not shown) [CBK296097] | 114% |
| O=C(NCCN1CCCC1)c1cc2cc(Cl)ccc2[nH]1 [CBK107267] | 88% |
| CSCC[C@@H]1NC(=O)N(c2ccc(CN3CCOCC3)cc2)C1=O [CBK287954] | 83.2% |
| O=C(c1ccc(-c2nccnc2N2CCN(CCO)CC2)cc1)N1CCOCC1 [CBK036812] | 92.1% |
| Cc1ccc(NC(=O)c2ccc3ccccc3n2)c(C)n1 [CBK200293] | 83.2% |
| c1ccc(Oc2cccc(CN3CCOCC3)c2)cc1 [CBK261870] | 95.3% |
| COc1cccc(OCC(=O)NCC(c2ccsc2)N2CCCC2)c1 (stereo not shown) [CBK304630] | 89.6% |
| CC(C)n1c(=O)n(CC(=O)NCc2cccs2)c2cccnc21 [CBK283699] | 88.6% |
| COc1cc2oc(=O)c(CC(=O)N3CCCC(C(=O)O)C3)c(C)c2cc1Cl (stereo not shown) [CBK286754] | 107% |
| Cc1ccc(CCNc2c([N+](=O)[O-])nn(-c3ccc4c(c3)OCCO4)[n+]2[O-])cc1 [CBK268225] | 103% |
| CCN1CCN(CC(=O)C(C#N)c2ccccc2)CC1 (stereo not shown) [CBK269423] | 92.8% |
| Cc1cn(CC(=O)N2CCC3(CCN(C(=O)Cc4c[nH]c5ccccc45)C3)C2)c(=O)[nH]c1=O (stereo not shown) [CBK131445] | 101% |
| COC(=O)CC(NC(=O)c1cccc(NC(C)=O)c1)c1cccs1 (stereo not shown) [CBK304537] | 78% |
